Test results: ChEMBL document CHEMBL1150446, “Inhibition of human cytomegalovirus protease by benzoxazinones and evidence of antiviral activity in cell culture” (Bioorg Med Chem Lett, 1997)

Experiments:
[1] = In vitro biological half-life was measured in human plasma; assay type: ADME
[2] = biological target: T1, Chymotrypsinogen B (Homo sapiens, UniProt P17538); test: Inhibitory concentration against human chymotrypsin
[3] = biological target: T2, Neutrophil elastase (Homo sapiens) (UniProt P08246); test: Percent inhibition against human leukocyte elastase (HLE) at a concentration of 100 microgM
T2 sequence (whole entry): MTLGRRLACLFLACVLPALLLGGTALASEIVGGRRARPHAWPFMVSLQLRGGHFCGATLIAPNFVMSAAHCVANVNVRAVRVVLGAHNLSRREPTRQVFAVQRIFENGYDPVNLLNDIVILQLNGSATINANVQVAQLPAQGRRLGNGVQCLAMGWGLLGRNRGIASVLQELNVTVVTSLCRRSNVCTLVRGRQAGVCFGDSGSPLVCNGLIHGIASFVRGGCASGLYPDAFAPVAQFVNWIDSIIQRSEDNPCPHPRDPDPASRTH

[4] = biological target: T3, Neutrophil elastase (Homo sapiens, UniProt P08246); test: Inhibitory concentration against human leukocyte elastase (HLE)
T3 sequence (P08246 whole entry): T2 sequence (whole entry)

[5] = biological target: T1, Chymotrypsinogen B; test: Inhibitory concentration against human chymotrypsin at a concentration of 10 uM
[6] = biological target: T2, Neutrophil elastase (Homo sapiens); test: Percent inhibition against human leukocyte elastase (HLE) at a concentration of 10 microgM
[7] = biological target: T1, Chymotrypsinogen B; test: Inhibitory concentration against human chymotrypsin at a concentration of 100 uM

T1 sequence (P17538 34-164 limits assumed, other chains not shown): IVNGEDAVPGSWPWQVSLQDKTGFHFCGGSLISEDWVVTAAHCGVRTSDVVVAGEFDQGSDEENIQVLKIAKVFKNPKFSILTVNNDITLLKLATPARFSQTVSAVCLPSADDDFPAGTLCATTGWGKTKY
T1 sequence (P17538 167-263 limits assumed, other chains not shown): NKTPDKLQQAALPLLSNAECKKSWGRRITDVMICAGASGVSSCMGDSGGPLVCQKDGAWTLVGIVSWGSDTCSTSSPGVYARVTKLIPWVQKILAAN

| half-life [1] | IC50 [2] | inhibition [3] | IC50 [4] | inhibition [5] | inhibition [6] | inhibition [7] | SMILES |
| --- | --- | --- | --- | --- | --- | --- | --- |
| 30 min | 42000 nM |  |  |  |  |  | Cc1c(NC(=O)OC(C)(C)C)ccc2nc(N[C@H](C)c3ccccc3)oc(=O)c12 |
| 32 min | 2600 nM | 67% |  |  |  |  | Cc1c(NC(=O)CN(C)C)ccc2nc(N[C@H](C)c3ccccc3)oc(=O)c12 |
| 70 min | 180 nM |  | 44 nM |  |  |  | Cc1cccc2nc(N[C@@H](C)c3ccccc3)oc(=O)c12 |
| 127 min | 65 nM |  | 3200 nM |  |  |  | Cc1c(N(C)C)ccc2nc(N[C@H](C)c3ccccc3)oc(=O)c12 |
| 31 min |  |  |  | 28% | 29% |  | Cc1c(NC(=O)c2ccccn2)ccc2nc(N[C@H](C)c3ccccc3)oc(=O)c12 |
| 50 min | 140 nM |  | 20 nM |  |  |  | Cc1cccc2nc(N[C@H](C)c3ccc(Br)cc3)oc(=O)c12 |
| 107 min | 2000 nM |  | 33 nM |  |  |  | Cc1cccc2nc(NC(C)C)oc(=O)c12 |
| 67 min | 88 nM |  |  |  |  |  | Cc1cccc2nc(N[C@H](C)c3ccccc3)oc(=O)c12 |
| 50 min | 3600 nM | 66% |  |  |  |  | COc1ccc(S(=O)(=O)Nc2ccc3nc(N[C@H](C)c4ccccc4)oc(=O)c3c2C)cc1 |
| 32 min |  | 36% |  |  |  | 47% | Cc1c(NC(=O)CN2CCCC2)ccc2nc(N[C@H](C)c3ccccc3)oc(=O)c12 |
